21 compounds from patent US7786141B2 (Vertex Pharmaceuticals Incorporated, priority 2004, dated 2010) can be followed below.

As a reminder, the EC50 is the midpoint of the concentration-response curve.

The target of assay [1] is T1, M4 muscarinic receptor (Homo sapiens, UniProt P08173).
T1 construct: expressed in transfected cells; host or cells: CHO (M4-CHO)
T1 sequence (P08173 1-479): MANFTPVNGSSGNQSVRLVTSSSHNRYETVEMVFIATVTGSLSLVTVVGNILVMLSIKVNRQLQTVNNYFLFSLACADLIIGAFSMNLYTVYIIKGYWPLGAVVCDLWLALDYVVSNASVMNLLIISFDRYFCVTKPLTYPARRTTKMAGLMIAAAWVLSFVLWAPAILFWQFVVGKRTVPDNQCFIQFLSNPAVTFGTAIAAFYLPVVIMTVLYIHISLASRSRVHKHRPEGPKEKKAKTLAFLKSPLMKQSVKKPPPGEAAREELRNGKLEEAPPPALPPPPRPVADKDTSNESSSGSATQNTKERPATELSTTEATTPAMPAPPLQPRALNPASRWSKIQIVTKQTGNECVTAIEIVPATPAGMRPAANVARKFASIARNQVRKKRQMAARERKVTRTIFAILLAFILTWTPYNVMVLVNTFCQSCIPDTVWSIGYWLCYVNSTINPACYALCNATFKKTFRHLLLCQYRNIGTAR
The experiment in a line: Functional mobilization of intracellular calcium (FLIPR) in M4-CHO cells. The format is cell-based. The gist of the method:
(§1)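 Measured via Fluo-3 fluorescence on a FLIPR, CHO cells with either muscarinic subtype received compound in 0.5% DMSO. Antagonism was assessed after 15 min pre-incubation followed by carbachol at each subtype's EC80; agonism from compound addition alone.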
A general note: A change in cytosolic calcium serves as a functional read-out for many receptors and channels.

Assay [2] concerns the target T2, M1 muscarinic receptor (Homo sapiens, UniProt P11229).
T2 construct: expressed in transfected cells; host or cells: CHO (M1-CHO)
T2 sequence (P11229 1-460): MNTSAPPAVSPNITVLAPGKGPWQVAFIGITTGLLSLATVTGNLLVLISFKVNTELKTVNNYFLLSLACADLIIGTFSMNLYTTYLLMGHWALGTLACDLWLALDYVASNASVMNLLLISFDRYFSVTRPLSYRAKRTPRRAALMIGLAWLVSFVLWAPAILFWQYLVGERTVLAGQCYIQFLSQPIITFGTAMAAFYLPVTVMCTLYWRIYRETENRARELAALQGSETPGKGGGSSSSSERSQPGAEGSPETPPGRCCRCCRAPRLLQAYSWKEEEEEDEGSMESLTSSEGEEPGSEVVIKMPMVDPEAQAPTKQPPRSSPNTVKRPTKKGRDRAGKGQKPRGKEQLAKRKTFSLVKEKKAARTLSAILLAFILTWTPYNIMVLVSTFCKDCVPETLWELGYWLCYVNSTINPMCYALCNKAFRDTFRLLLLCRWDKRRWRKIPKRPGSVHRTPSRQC
The experiment in a line: Functional mobilization of intracellular calcium (FLIPR) in M1-CHO cells. The format is cell-based. The essentials:
as §1

[3] abbreviates: M4 receptor, calcium mobilization.
Where [4] appears, read: M4 receptor, calcium mobilization, read-out: M4 Efficacy.
[5] abbreviates: M1 receptor, calcium mobilization.
[6] abbreviates: M1 receptor, calcium mobilization, read-out: M1 Efficacy.
Where [7] appears, read: Table 4, 100% efficacy is the maximum response obtained with the Carbachol control.
The mark [8] stands for this setting: Table 4, modulating M4 receptor.
Setting [9] is: Table 4, modulating M1 receptor.
The mark [10] stands for this setting: Table 4, M4 receptor, calcium mobilization (FLIPR).
Setting [11] is: Table 4, M1 receptor, calcium mobilization (FLIPR).

Read-outs that look alike come from different tables or passages of the source. Some results are limits rather than exact numbers.

In the case of `CCOC(=O)N1CCC(N2CCC3(CC2)CN(C(=O)c2ccc(C)cc2)c2ccc(F)cc23)CC1` [compound 330], the “M4 Activity” value in assay [1] (setting [3]) was “x (activity was measured to be greater than 1.0 μM)”. Further, the Emax in assay [1] (setting [4]) and in assay [2] (setting [6]) was under 65% each time. The “M1 Activity” value in assay [2] (setting [5]) was “x (activity was measured to be greater than 1.0 μM)”.
Turning to `CC(=O)N[C@H]1CC2(CCN(C3CCN(C)CC3)CC2)c2ccccc21` [compound 703], the Emax in assay [1] (setting [7]) and in assay [2] (setting [7]) was under 25% throughout. In addition, the “M4 Activity” value in assay [1] (setting [8]) is reported as “x (activity was measured to be greater than 5.0 μM)”. Moreover, the “M1 Activity” value in assay [2] (setting [9]) is “x (activity was measured to be greater than 5.0 μM)”.
Turning to `CCOC(=O)N1C2CCC1CC(N1CCC3(CCc4ccccc43)CC1)C2` (stereo not drawn) [compound 365], the “M4 Activity” value in assay [1] (setting [3]) is “x (activity was measured to be greater than 1.0 μM)”. Further, the Emax was under 65% in assay [1] (setting [4]) and 65 to 85% in assay [2] (setting [6]). The “M1 Activity” value in assay [2] (setting [5]) is “xxx (activity was measured to be less than 0.1 μM)”.
As for `COc1ccc(N2CCC(N3CCC4(CC3)CN(C(=O)N(C)C)c3ccc(F)cc34)CC2)nn1` [compound 760], the Emax in assay [1] (setting [7]) and in assay [2] (setting [7]) was 25 to 100% in each case. Also, the “M4 Activity” value in assay [1] (setting [8]) is reported as “xxx (activity was measured to be less than 2.0 μM)”. In addition, the “M1 Activity” value in assay [2] (setting [9]) is listed as “x (activity was measured to be greater than 5.0 μM)”.
With `CN(C)C(=O)N1CC2(CCN(C3CCN(c4ccccc4F)CC3)CC2)c2cc(F)ccc21` [compound 711], the Emax in assay [1] (setting [7]) is under 25%; in assay [2] (setting [7]) it was 25 to 100%. Besides, in assay [1] (setting [8]), the “M4 Activity” value is recorded as “x (activity was measured to be greater than 5.0 μM)”. For the same compound, the “M1 Activity” value in assay [2] (setting [9]) was “xx (activity was measured to be between 2.0 μM and 5.0 μM)”.
As to `CCOC(=O)N1CC[C@H](CN2CCC3(CC2)CN(C(C)=O)c2cccc(C)c23)C1` [compound 940], the Emax in assay [1] (setting [7]) and in assay [2] (setting [7]) was 25 to 100% throughout. Also, the “M4 Activity” value in assay [1] (setting [10]) is on record as “xxx (activity was measured to be less than 2.0 μM)”. Further, the “M1 Activity” value in assay [2] (setting [11]) is “xxx (activity was measured to be less than 2.0 μM)”.
For `CC(=O)N1CCC(N2CCC3(CC2)CN(C(=O)N(C)C)c2ccc(F)cc23)CC1` [compound 880], the Emax in assay [1] (setting [7]) and in assay [2] (setting [7]) was under 25% throughout. In addition, the “M4 Activity” value in assay [1] (setting [10]) is recorded as “x (activity was measured to be greater than 5.0 μM)”. Also, the “M1 Activity” value in assay [2] (setting [11]) is recorded as “x (activity was measured to be greater than 5.0 μM)”.
Regarding `CCOC(=O)N1C2CCC1CC(N1CCC3(CC1)CNc1ccccc13)C2` (stereo not drawn) [compound 153], the “M4 Activity” value in assay [1] (setting [3]) is “xxx (activity was measured to be less than 0.1 μM)”. Besides, the Emax in assay [1] (setting [4]) and in assay [2] (setting [6]) was over 85% in each case. Also, the “M1 Activity” value in assay [2] (setting [5]) is “xxx (activity was measured to be less than 0.1 μM)”.
With `CCOC(=O)N1CCC(CN2CCC3(CC2)C[C@H](NC(C)=O)c2ccccc23)CC1` [compound 250], the “M4 Activity” value in assay [1] (setting [3]) was “x (activity was measured to be greater than 1.0 μM)”. The Emax in assay [1] (setting [4]) and in assay [2] (setting [6]) was 65 to 85% each time. Moreover, the “M1 Activity” value in assay [2] (setting [5]) was “xx (activity was measured to be between 0.1 μM and 1.0 μM)”.
Turning to `CCOC(=O)N1CCC(N2CCC3(CC2)CN(C(=O)c2ccc4c(c2)OCO4)c2ccc(F)cc23)CC1` [compound 401], the EC50 in assay [1] (M4-CHO cells, calcium mobilization (FLIPR)) is over 1000 nM; in assay [2] (M1-CHO cells, calcium mobilization (FLIPR)) it was under 100 nM. For the same compound, the Emax in assay [1] (M4-CHO cells, calcium mobilization (FLIPR), read-out: M4 Efficacy) is under 65%; in assay [2] (M1-CHO cells, calcium mobilization (FLIPR), read-out: M1 Efficacy), 65 to 85%.
Turning to `COCCOC(=O)N1CCC(N2CCC3(CC2)CN(C(C)=O)c2ccccc23)CC1` [compound 539], the Emax in assay [1] (setting [7]) and in assay [2] (setting [7]) was 25 to 100% each time. Moreover, the “M4 Activity” value in assay [1] (setting [8]) is “xx (activity was measured to be between 2.0 μM and 5.0 μM)”. Further, in assay [2] (setting [9]), the “M1 Activity” value is “xx (activity was measured to be between 2.0 μM and 5.0 μM)”.
As for `CCOC(=O)N1CCC(N2CCC3(CC2)CN(C(=O)CCOC)c2ccc(F)cc23)CC1` [compound 714], the Emax in assay [1] (setting [7]) is 25 to 100%; in assay [2] (setting [7]) it was over 100%. The “M4 Activity” value in assay [1] (setting [8]) is on record as “xxx (activity was measured to be less than 2.0 μM)”. In assay [2] (setting [9]), the “M1 Activity” value is recorded as “xxx (activity was measured to be less than 2.0 μM)”.
With `CC(=O)N1CC2(CCN(C3CCN(c4cncc(CC(C)C)n4)CC3)CC2)c2ccccc21` [compound 893], the Emax in assay [1] (setting [7]) and in assay [2] (setting [7]) was under 25% throughout. Besides, in assay [1] (setting [10]), the “M4 Activity” value was “x (activity was measured to be greater than 5.0 μM)”. In addition, in assay [2] (setting [11]), the “M1 Activity” value is given as “x (activity was measured to be greater than 5.0 μM)”.
For `CC(=O)N1CC2(CCN(C3CCN(c4nc(C)ns4)CC3)CC2)c2cc(F)ccc21` [compound 943], the Emax in assay [1] (setting [7]) and in assay [2] (setting [7]) was 25 to 100% each time. The “M4 Activity” value in assay [1] (setting [10]) is listed as “xxx (activity was measured to be less than 2.0 μM)”. In addition, the “M1 Activity” value in assay [2] (setting [11]) is “xxx (activity was measured to be less than 2.0 μM)”.
Consider `CN(C)C(=O)N1CC2(CCN(C3CCN(c4cnccn4)CC3)CC2)c2cc(F)ccc21` [compound 895], for which the Emax in assay [1] (setting [7]) and in assay [2] (setting [7]) was 25 to 100% each time. Also, the “M4 Activity” value in assay [1] (setting [10]) is “xxx (activity was measured to be less than 2.0 μM)”. In assay [2] (setting [11]), the “M1 Activity” value was “xxx (activity was measured to be less than 2.0 μM)”.
Turning to `CCOC(=O)N1CCC(N2CCC3(CC[C@H](NC(=O)N(C)C)c4ccccc43)CC2)CC1` [compound 961], the Emax in assay [1] (setting [7]) and in assay [2] (setting [7]) was 25 to 100% throughout. Besides, the “M4 Activity” value in assay [1] (setting [10]) is on record as “xxx (activity was measured to be less than 2.0 μM)”. For the same compound, in assay [2] (setting [11]), the “M1 Activity” value is given as “xxx (activity was measured to be less than 2.0 μM)”.
Consider `O=C(N[C@H]1CC2(CCN(C3C[C@H]4CC[C@@H]3C4)CC2)c2ccccc21)N1CCCCC1` (stereo partly drawn) [compound 525], for which the Emax in assay [1] (setting [7]) was 25 to 100%; in assay [2] (setting [7]), under 25%. In addition, the “M4 Activity” value in assay [1] (setting [8]) is reported as “xxx (activity was measured to be less than 2.0 μM)”. Moreover, the “M1 Activity” value in assay [2] (setting [9]) was “x (activity was measured to be greater than 5.0 μM)”.
For `Cc1ncc(N2CCC(N3CCC4(CC3)CN(C(=O)N(C)C)c3ccc(F)cc34)CC2)nc1C` [compound 762], the Emax in assay [1] (setting [7]) and in assay [2] (setting [7]) was 25 to 100% each time. Further, in assay [1] (setting [8]), the “M4 Activity” value is listed as “xxx (activity was measured to be less than 2.0 μM)”. Besides, in assay [2] (setting [9]), the “M1 Activity” value is on record as “xxx (activity was measured to be less than 2.0 μM)”.
With `CC(=O)N1CC2(CCN(C3CCN(c4nn[nH]n4)CC3)CC2)c2ccccc21` [compound 710], the Emax in assay [1] (setting [7]) and in assay [2] (setting [7]) was 25 to 100% in each case. The “M4 Activity” value in assay [1] (setting [8]) is reported as “x (activity was measured to be greater than 5.0 μM)”. For the same compound, the “M1 Activity” value in assay [2] (setting [9]) is recorded as “x (activity was measured to be greater than 5.0 μM)”.
Regarding `O=C(N[C@H]1CC2(CCN([C@@H]3C[C@H]4CC[C@@H]3C4)CC2)c2ccccc21)N1CCCC1` [compound 487], the Emax in assay [1] (setting [7]) was 25 to 100%; in assay [2] (setting [7]) it was under 25%. Besides, the “M4 Activity” value in assay [1] (setting [8]) is recorded as “xxx (activity was measured to be less than 2.0 μM)”. For the same compound, the “M1 Activity” value in assay [2] (setting [9]) is “x (activity was measured to be greater than 5.0 μM)”.
Regarding `CC(C)C1CCC(N2CCC3(CC2)CC(C(=O)O)c2ccccc23)CC1` (stereo not drawn) [compound 919], the Emax in assay [1] (setting [7]) and in assay [2] (setting [7]) was under 25% each time. The “M4 Activity” value in assay [1] (setting [10]) is listed as “x (activity was measured to be greater than 5.0 μM)”. Further, in assay [2] (setting [11]), the “M1 Activity” value is on record as “x (activity was measured to be greater than 5.0 μM)”.
